#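 Tested at 5 concentrations; 48 h exposure; 96-well plates; endpoints linearly interpolated, else capped at highest concentration. At the TGI there is no net growth.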
# Legend:
# Experiment in all cases: NCI tumour cell line growth inhibition, 48 h
# MDA-MB-435 = test system: MDA-MB-435
# SF-268 CNS = test system: SF-268 CNS
# UO-31 renal = test system: UO-31 renal
# SF-295 CNS = test system: SF-295 CNS
# NCI-H226 lung = test system: NCI-H226 lung
# HT29 colon = test system: HT29 colon
# T-47D breast = test system: T-47D breast
# ACHN renal = test system: ACHN renal
# SR leukemia = test system: SR leukemia
# EKVX NSCLC = test system: EKVX NSCLC
# RXF 393 renal = test system: RXF 393 renal
# HCT-116 colon = test system: HCT-116 colon
# LOX IMVI melanoma = test system: LOX IMVI melanoma
# HCC-2998 colon = test system: HCC-2998 colon
# SK-MEL-28 melanoma = test system: SK-MEL-28 melanoma
# 786-0 renal = test system: 786-0 renal
# OVCAR-3 ovarian = test system: OVCAR-3 ovarian
# CAKI-1 renal = test system: CAKI-1 renal
# SNB-75 CNS = test system: SNB-75 CNS
# COLO 205 colon = test system: COLO 205 colon
Structure (SMILES),TGI (MDA-MB-435) [µM],TGI (SF-268 CNS) [µM],TGI (UO-31 renal) [µM],TGI (SF-295 CNS) [µM],TGI (NCI-H226 lung) [µM],TGI (HT29 colon) [µM],TGI (T-47D breast) [µM],TGI (ACHN renal) [µM],TGI (SR leukemia) [µM],TGI (EKVX NSCLC) [µM],TGI (RXF 393 renal) [µM],TGI (HCT-116 colon) [µM],TGI (LOX IMVI melanoma) [µM],TGI (HCC-2998 colon) [µM],TGI (SK-MEL-28 melanoma) [µM],TGI (786-0 renal) [µM],TGI (OVCAR-3 ovarian) [µM],TGI (CAKI-1 renal) [µM],TGI (SNB-75 CNS) [µM],TGI (COLO 205 colon) [µM]
COc1ccc(/C=C2\Sc3nnc(CNc4ccc(Cl)cc4)n3N=C2c2cc(F)c(Cl)cc2Cl)cc1OC,> 100,> 100,> 100,> 100,> 100,> 100,> 100,> 100,> 100,> 100,74.2,> 100,> 100,> 100,> 100,> 100,> 100,80.5,–,–
O=[N+]([O-])C(=C1Nc2ccccc2N1)/C(Cl)=C(/Cl)N1CCOCC1,> 100,62.5,> 100,> 100,> 100,> 100,51.2,> 100,–,> 100,–,> 100,–,> 100,> 100,> 100,96.6,> 100,> 100,> 100
COC(=O)[C@]1(c2cc3ccccc3[nH]2)CC2CN(CC(=O)N(C)OC)C1CC2(OC)OC (stereo partly specified),91.3,> 100,> 100,> 100,> 100,> 100,57.1,> 100,–,> 100,> 100,70.7,> 100,> 100,> 100,57.7,> 100,56,> 100,> 100
NC(=O)/C=c1/c2ccccc2n2nc3ccccc3c12,35.1,47.5,77,> 100,–,29.8,> 100,29.1,6.16,42.7,46.5,21,19.7,36.8,33.9,77.4,49.1,82.5,–,40.6
C=C1C(=O)OC2CC(=C)C3CC=C(C)C3CC12 (stereo unspecified),32.6,> 100,29.3,> 100,43,28.5,37.1,47.8,55.6,> 100,–,50.4,23.5,43.3,77.3,31.3,91.9,28.2,–,41.7
CC(C)(C)OC(=O)C1=C2C=C(O)C=CC2(C)N(Cc2ccccc2)C1=N (stereo unspecified),21.5,–,10.7,28.2,28.6,14,10.2,5.56,–,11.5,6.96,9.83,8.44,29.3,24.8,12.7,13.8,4.19,> 56.7,6.24
O=C(Cc1nc2ncccc2[nH]c1=O)c1c[nH]c2ccccc12,30.7,30.5,32.5,31.9,–,60.9,34.5,30.1,96.2,56.9,39.1,49,44,34.6,32.8,40.5,32.5,31.9,–,31.2

# Source: PubChem BioAssay (NCI)
